What all share (type): in vivo
Experiment [1] deals with Cotton Aphid (Aphis gossypii). Nature of the experiment: Insecticidal test for cotton aphid in foliar spray assay on squash. Conditions: Corrected % Control (Abbott), 3 days after spray. Also on record: key: A: 90-100; B: 80-89; C: 70-79; D: 60-69; E: 50-59; F: Less than 50; G: Inactive; H: Not tested. How it is done:
Insecticidal Test for Cotton Aphid (Aphis gossypii) in Foliar Spray Assay Squash with fully expanded cotyledon leaves were trimmed to one cotyledon per plant and infested with cotton aphid (wingless adult and nymph) 1 day prior to chemical application. Each plant was examined before chemical application to ensure proper infestation (ca. 30-70 aphids per plant). Compounds (2 mg) were dissolved in 2 ml of acetone:methanol (1:1) solvent, forming stock solutions of 1000 ppm. The stock solutions were diluted 5× with 0.025% Tween 20 in H2O to obtain a solution at 200 ppm. Lower concentrations (50, 12.5, 3.125, 0.781 and 0.195 ppm) were prepared by making sequential 4× dilutions from the 200 ppm solution with a diluent consisting 80 parts of 0.025% Tween 20 in H2O and 20 parts of acetone:methanol (1:1). A hand-held Devilbiss sprayer was used to apply the spray solutions until runoff to both sides of the squash cotyledon leaves. Four plants (4 replications) were used for each concentration of each compound. Reference plants (solvent check) were sprayed with the diluent only. Treated plants were held in a holding room for 3 days at approximately 23° C. and 40% RH before the number of live aphids on each plant was recorded. Insecticidal activity was measured by Corrected % Control using Abbott's correction formula and presented in Table 1: Corrected % Control=100*(X−Y)/X • where X=No. of live aphids on solvent check plants • Y=No. of live aphids on treated plants

For experiment [2], the system named is Sweet Potato Whitefly (Bemisia tabaci). Nature of the experiment: Insecticidal test for sweet potato whitefly in foliar spray assay on cotton. Conditions: live large nymphs counted 12 days after spray of egg-infested leaves. The text has this:
Insecticidal Test for Sweet Potato Whitefly (Bemisia tabaci) in Foliar Spray Assay This test was designed to measure the capability of whitefly eggs and/or young nymphs to develop to large nymphs. Cotton seedlings at the growth stage of one or two expanding true leaf were trimmed so that only the first true leaf remained (cotyledon leaves were also removed). The plants were pre-infested with sweet potato whitefly eggs by keeping plants next to the colony-keeping plants for two days. The infested plants were carefully checked for presence of similar egg density before use in the insecticidal tests. Master solutions of test compounds at 1000 ppm were prepared in acetone: methanol (1:1). The 12.5 ppm spray solutions were then made by diluting 0.188 mL of the master solution with 14.812 ml of 0.025% Tween 20 in water. The lower concentrations were made by diluting the 12.5 ppm spray solution with a diluent consisting 98.75 parts of 0.025% Tween 20 in water and 1.25 parts of acetone:methanol (1:1). The diluent was used as solvent control. The test solutions were sprayed with a hand-held Devilbiss sprayer until runoff to both sides of the infested cotton leaves. Four plants (4 replications) were used for each treatment. Treated plants were held in a holding room for 12 days at approximately 23° C. and 40% RH before evaluation. To evaluate the efficacy of the compounds, the number of live large nymphs in an area of 1 square inch on the lower surface of the treated cotton leaves was counted under a microscope. Insecticidal activity was determined by Corrected % Control using Abbott's correction formula and presented in Table 3: Corrected % Control=100*(X−Y)/X • where X=No. of live large nymphs on solvent check plants • Y=No. of live large nymphs on treated plants

For experiment [3], the system named is Green Leafhopper (Nephotettix sp.). Briefly: Root-uptake systemic assay on rice, green leafhopper. Conditions: 10 ppm in water of rice seedlings, 3rd instar nymphs, mortality observed at 2 and 6 days (day of tabled value not stated). How it is done:
(§1) Insecticidal Test for Brown Planthopper (Nilaparvata lugens) and Green Leafhopper (Nephotettix sp.) A root-uptake systemic assay was performed on both brown planthopper and green leafhopper. Four-week-old rice seedlings were submerged in 3-cm depth of water in the bottom portion (high 5 cm, diameter 3 cm) of a 2-part glass cylinder (high 18 cm, diameter 3 cm). A metal screen was used to hold the seedlings within the bottom portion. Scotch tape was used to bind the two portions of the cylinder after setting up the seedlings. A metal cap was used to cover the cylinder. There were 4 cylinders for each treatment. The test compound was dissolved in acetone to make a 10,000 ppm stock solution. The stock solution was incorporated at final test concentrations of 10 ppm in the water in which rice seedlings were submerged. Five laboratory-reared 3rd instar nymphs of brown planthopper or green leafhopper were introduced into each cylinder 3 hr after insecticide application. The treated test units were kept in a growth chamber with conditions set as followings: Temperature 28±0.5° C.; Relative humidity 70±0.5%; Photoperiod […].

Experiment [4] relates to Brown Planthopper (Nilaparvata lugens). Nature of the experiment: Root-uptake systemic assay on rice, brown planthopper. The note with it: 10 ppm in water of rice seedlings, 3rd instar nymphs, mortality observed at 2 and 6 days (day of tabled value not stated). The procedure:
as §1

Experiment [5] has as its system Green Peach Aphid (Myzus persicae). Briefly: Insecticidal test for green peach aphid in foliar spray assay on cabbage. Set-up: key: A: 90-100; B: 80-89; C: 70-79; D: 60-69; E: 50-59; F: Less than 50; G: Inactive; H: Not tested. The note with it: Corrected % Control (Abbott), three days after spray. The procedure:
Insecticidal Test for Green Peach Aphid (Myzus persicae) in Foliar Spray Assay Cabbage seedlings grown in 3-inch pots, with 2-3 small (3-5 cm) true leaves, were used as test substrate. The seedlings were infested with 20-50 green peach aphids (wingless adult and nymph) 2-3 days prior to chemical application. Four seedlings were used for each treatment. Compounds (2 mg) were dissolved in 2 ml of acetone:methanol (1:1) solvent, forming stock solutions of 1000 ppm. The stock solutions were diluted 5× with 0.025% Tween 20 in H2O to obtain a solution at 200 ppm. Lower concentrations (50, 12.5, 3.125 and 0.781 ppm) were prepared by making sequential 4× dilutions from the 200 ppm solution with a diluent consisting 80 parts of 0.025% Tween 20 in H2O and 20 parts of acetone:methanol (1:1). A hand-held Devilbiss sprayer was used for spraying a solution to both sides of cabbage leaves until runoff. Reference plants (solvent check) were sprayed with the diluent only. Treated plants were held in a holding room for three days at approximately 23° C. and 40% RH prior to grading. Evaluation was conducted by counting the number of live aphids per plant under a microscope. Insecticidal activity was measured by using Abbott's correction formula: Corrected % Control=100*(X−Y)/X • where X=No. of live aphids on solvent check plants • Y=No. of live aphids on treated plants

Each structure is given as a SMILES string.

As to `CS(=O)(=NC#N)C1(c2ccc(Cl)nc2)CCC1` (stereo not drawn) [Compound 3, methyl(oxido)[1-(6-chloropyridin-3-yl)cyclobutyl]-λ^4-sulfanylidenecyanamide], in experiment [1] (50 ppm), the “% Control at ppm, against cotton aphid on squash (foliar spray)” value (“% Control at ppm, against cotton aphid” for short) is reported as “A (90-100)”.

On to `CS(=O)(=NC#N)C1(c2ccc(Cl)nc2)CC1` (stereo not drawn) [Compound 2, methyl(oxido) [1-(6-chloropyridin-3-yl)cyclopropyl]-λ^4-sulfanylidenecyanamide], for which the “% Control at ppm, against cotton aphid” value in experiment [1] (0.78 ppm) and in experiment [1] (3.13 ppm) was “A (90-100)” throughout. In addition, the “% Control at ppm, against sweet potato whitefly on cotton, foliar spray” value is recorded as “F (Less than 50)” in experiment [2] (0.781 ppm), “E (50-59)” in experiment [2] (3.125 ppm) and “C (70-79)” in experiment [2] (12.500 ppm). In experiment [3], the “% Systemic Control at 10 ppm on rice, Green Leafhopper” value was “B (80-89)”. Further, the “% Systemic Control at 10 ppm on rice, Brown Planthopper” value in experiment [4] is recorded as “E (50-59)”. Moreover, the “% Control at ppm, against green peach aphid on cabbage (foliar spray)” value (shortened to “% Control at ppm … on cabbage (foliar spray)”) in experiment [5] (0.78 ppm) is “D (60-69)”; in experiment [5] (3.13 ppm), “A (90-100)”.

For `CS(=O)(=NC#N)C1(c2ccc(Cl)nc2)CCOCC1` (stereo not drawn) [Compound 6, methyl(oxido)[4-(6-chloropyridin-3-yl)tetra hydro-pyran-4-yl]-λ^4-sulfanylidenecyanamide], the “% Control at ppm, against cotton aphid” value in experiment [1] (0.78 ppm), in experiment [1] (3.13 ppm), in experiment [1] (12.5 ppm) and in experiment [1] (50 ppm) was “A (90-100)” each time. The “% Control at ppm … on cabbage (foliar spray)” value is given as “G” in experiment [5] (0.78 ppm); “G” in experiment [5] (3.13 ppm); “G” in experiment [5] (12.5 ppm); “G” in experiment [5] (50 ppm); “A (90-100)” in experiment [5] (200 ppm).

As to `CS(=O)(=NC#N)C1(c2ccc(Cl)nc2)CCCCC1` (stereo not drawn) [Compound 5, methyl(oxido)[1-(6-chloropyridin-3-yl)cyclohexyl]-λ^4-sulfanylidenecyanamide], the “% Control at ppm, against cotton aphid” value is given as “G” in experiment [1] (0.78 ppm), “A (90-100)” in experiment [1] (3.13 ppm), “A (90-100)” in experiment [1] (12.5 ppm) and “A (90-100)” in experiment [1] (50 ppm).

As to `CS(=O)(=NC#N)C1(c2ccc(Cl)nc2)CCCC1` (stereo not drawn) [Compound 4, methyl(oxido)[1-(6-chloropyridin-3-yl)cyclopentyl]-λ^4-sulfanylidenecyanamide], the “% Control at ppm, against cotton aphid” value in experiment [1] (50 ppm) is recorded as “A (90-100)”.

Regarding `CS(=O)(=NC#N)C1(c2ccc(C(F)(F)F)nc2)CC1` (stereo not drawn) [Compound 1, methyl(oxido) {1-[6-(trifluoromethyl)pyridin-3-yl]cyclopropyl}-λ^4-sulfanylidenecyanamide], the “% Control at ppm, against cotton aphid” value in experiment [1] (0.78 ppm), in experiment [1] (3.13 ppm), in experiment [1] (12.5 ppm) and in experiment [1] (50 ppm) was “A (90-100)” throughout. Also, the “% Control at ppm … on cabbage (foliar spray)” value in experiment [5] (0.78 ppm) is given as “F (Less than 50)”; in experiment [5] (3.13 ppm) it was “B (80-89)”; in experiment [5] (12.5 ppm), “A (90-100)”; in experiment [5] (50 ppm), “A (90-100)”; in experiment [5] (200 ppm), “A (90-100)”.

The values above are taken from patent US7935826B2, “Insecticidal N-substituted (heteroaryl)cycloalkyl sulfoximines” (Dow AgroSciences LLC, priority 2006, dated 2011).
